Measured values as given in patent US20260015350A1, “AZAQUINAZOLINE PAN-KRAS INHIBITORS” (Mirati Therapeutics, Inc., priority 2022, published 2026).

Tests used:
KRas^WT = target: T1, KRas^WT (Homo sapiens, UniProt P01116); test: KRas binding assay (TR-FRET tracer displacement), KRas WT; conditions: TR-FRET tracer displacement, KRas WT
T1 construct: Biotinylated KRas (corresponding to amino acids 1-169, produced at Accelegan Inc.); biotin (biotinylated); purchased Accelegan Inc

[1] = test system: KRas-mediated phosphorylation of ERK in HCT116 cells; test: Inhibition of KRas-mediated phosphorylation of ERK (Cisbio HTRF pERK), HCT116 cells; format: cell-based; conditions: Homo sapiens, HCT-116, HTRF pERK
How it was run: (§1)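 Phosphorylated ERK was quantified by HTRF using d2-conjugate and Cryptate antibodies added to lysates for 2 hrs at room temperature.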

[2] = test system: KRas-mediated phosphorylation of ERK in H460 cells; test: Inhibition of KRas-mediated phosphorylation of ERK (Cisbio HTRF pERK), H460 cells; format: cell-based; conditions: Homo sapiens, NCI-H460, HTRF pERK
How it was run: (§2)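 Following a 3-hr exposure of cells to serially diluted compound (from 10 uM, 3-fold, 10 doses), cold lysis for 40 mins preceded a 2-hr room-temperature HTRF immunoassay for phosphorylated ERK.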

[3] = test system: KRas-mediated phosphorylation of ERK in H358 cells; test: Inhibition of KRas-mediated phosphorylation of ERK (Cisbio HTRF pERK), H358 cells; format: cell-based; conditions: Homo sapiens, NCI-H358, HTRF pERK
How it was run: as §2

[4] = test system: KRas-mediated phosphorylation of ERK in PSN1 cells; test: Inhibition of KRas-mediated phosphorylation of ERK (Cisbio HTRF pERK), PSN1 cells; format: cell-based; conditions: Homo sapiens
How it was run: (§3)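 Phospho-ERK is quantified by HTRF with the Advanced pERK kit. Cells go in at 6,000/well in RPMI plus 10% FBS overnight at 37° C. under 5% CO2, with a 4-hour covered room-temperature incubation ahead of the read.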

[5] = test system: KRas-mediated phosphorylation of ERK in H727 cells; test: Inhibition of KRas-mediated phosphorylation of ERK (Cisbio HTRF pERK), H727 cells; format: cell-based; conditions: Homo sapiens, NCI-H727, H727 cells; HTRF pERK
How it was run: as §2

[6] = test system: KRas-mediated phosphorylation of ERK in AsPC-1 cells; test: Inhibition of KRas-mediated phosphorylation of ERK (Cisbio HTRF pERK), AsPC-1 cells; format: cell-based; conditions: Homo sapiens, ASPC1, AsPC-1 cells; HTRF pERK
How it was run: as §2

KRas^G12C = target: T2, KRas^G12C (Homo sapiens, UniProt P01116, G12C); test: KRas binding assay (TR-FRET tracer displacement), KRas G12C; conditions: TR-FRET tracer displacement, KRas G12C
T2 construct: Biotinylated KRas (corresponding to amino acids 1-169, produced at Accelegan Inc.); biotin (biotinylated); purchased Accelegan Inc
T2 sequence (P01116 1-169 isoform P01116-2 G12C): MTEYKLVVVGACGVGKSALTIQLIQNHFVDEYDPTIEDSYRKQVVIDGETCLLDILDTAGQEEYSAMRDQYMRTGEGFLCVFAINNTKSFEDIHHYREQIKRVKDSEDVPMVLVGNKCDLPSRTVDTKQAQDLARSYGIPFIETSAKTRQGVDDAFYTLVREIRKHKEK

[7] = test system: KRas-mediated phosphorylation of ERK in MKN1 cells; test: Inhibition of KRas-mediated phosphorylation of ERK (Cisbio HTRF pERK), MKN1 cells; format: cell-based; conditions: Homo sapiens, MKN-1
How it was run: as §3

KRas^G12D = target: T3, KRas^G12D (Homo sapiens, UniProt P01116, G12D); test: KRas binding assay (TR-FRET tracer displacement), KRas G12D
T3 construct: Biotinylated KRas (corresponding to amino acids 1-169, produced at Accelegan Inc.); biotin (biotinylated); purchased Accelegan Inc
T3 sequence (P01116 1-169 isoform P01116-2 G12D): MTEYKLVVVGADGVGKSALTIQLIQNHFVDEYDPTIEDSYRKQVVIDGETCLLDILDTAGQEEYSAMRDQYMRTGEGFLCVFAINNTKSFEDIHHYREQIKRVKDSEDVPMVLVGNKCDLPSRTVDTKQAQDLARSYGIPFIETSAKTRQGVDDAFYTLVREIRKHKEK

KRas^G12V = target: T4, KRas^G12V (Homo sapiens, UniProt P01116, G12V); test: KRas binding assay (TR-FRET tracer displacement), KRas G12V
T4 construct: Biotinylated KRas (corresponding to amino acids 1-169, produced at Accelegan Inc.); biotin (biotinylated); purchased Accelegan Inc
T4 sequence (P01116 1-169 isoform P01116-2 G12V): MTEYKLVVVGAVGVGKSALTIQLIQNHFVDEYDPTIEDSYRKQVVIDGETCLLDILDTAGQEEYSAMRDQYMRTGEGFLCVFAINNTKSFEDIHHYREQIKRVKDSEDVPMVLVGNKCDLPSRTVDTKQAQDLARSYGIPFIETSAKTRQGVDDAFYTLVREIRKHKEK

[8] = test system: KRas-mediated phosphorylation of ERK in A549 cells; test: Inhibition of KRas-mediated phosphorylation of ERK (Cisbio HTRF pERK), A549 cells; format: cell-based; conditions: Homo sapiens, HTRF pERK
How it was run: as §1

KRas^G12S = target: T5, KRas^G12S (Homo sapiens, UniProt P01116, G12S); test: KRas binding assay (TR-FRET tracer displacement), KRas G12S; conditions: TR-FRET tracer displacement, KRas G12S
T5 construct: Biotinylated KRas (corresponding to amino acids 1-169, produced at Accelegan Inc.); biotin (biotinylated); purchased Accelegan Inc
T5 sequence (P01116 1-169 isoform P01116-2 G12S): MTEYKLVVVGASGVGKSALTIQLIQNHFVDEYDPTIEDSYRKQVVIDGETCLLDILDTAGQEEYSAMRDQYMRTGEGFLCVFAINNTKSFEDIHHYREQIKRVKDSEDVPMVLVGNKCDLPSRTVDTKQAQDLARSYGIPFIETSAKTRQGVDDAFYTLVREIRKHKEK

T1 sequence (P01116 1-169 isoform P01116-2): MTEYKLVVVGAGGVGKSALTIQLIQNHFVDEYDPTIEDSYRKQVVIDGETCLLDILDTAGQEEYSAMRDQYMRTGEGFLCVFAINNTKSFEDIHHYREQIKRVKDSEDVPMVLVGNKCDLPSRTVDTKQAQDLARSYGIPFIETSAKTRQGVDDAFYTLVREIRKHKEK

SMILES	IC50 (KRas^WT) [nM]	IC50 [1] [nM]	IC50 [2] [nM]	IC50 [3] [nM]	IC50 [4] [nM]	IC50 [5] [nM]	IC50 [6] [nM]	IC50 (KRas^G12C) [nM]	IC50 [7] [nM]	IC50 (KRas^G12D) [nM]	IC50 (KRas^G12V) [nM]	IC50 [8] [nM]	IC50 (KRas^G12S) [nM]
C=C1CN2CC(=C)CC2(COc2nc(N3CCC[C@@](C)(O)C3)c3cnc(-c4cc(O)cc5ccc(F)c(CC)c45)c(F)c3n2)C1 [Example 799, (R)-1-(2-((2,6-dimethylenetetrahydro-1H-pyrrolizin-7a(5H)-yl)methoxy)-7-(8-ethyl-7-fluoro-3-hydroxynaphthalen-1-yl)-8-fluoropyrido[4,3-d]pyrimidin-4-yl)-3-methylpiperidin-3-ol]	< 2	30	8	4	988	20	7	< 2	0.9	< 2	< 2	9	< 2
CCc1c(F)ccc2cc(O)cc(-c3ncc4c(N5C[C@@H]6C[C@H](C5)[C@H](O)C6)nc(OC[C@@]56CCCN5C[C@H](OC)C6)nc4c3F)c12 [Example 926, (1R,5R,6R)-3-(7-(8-ethyl-7-fluoro-3-hydroxynaphthalen-1-yl)-8-fluoro-2-(((2R,7aS)-2-methoxytetrahydro-1H-pyrrolizin-7a(5H)-yl)methoxy)pyrido[4,3-d]pyrimidin-4-yl)-3-azabicyclo[3.2.1]octan-6-ol]	< 2				3000	29	66	< 2	0.7	2	< 2		< 2
CCc1c(F)ccc2cc(O)cc(-c3ncc4c(N5C[C@@H]6C[C@H](C5)[C@H](O)C6)nc(OCC56CCCN5CC(=C(F)F)C6)nc4c3F)c12 (stereo partly drawn) [Example 798, (1R,5R,6R)-3-(2-((2-(difluoromethylene)tetrahydro-1H-pyrrolizin-7a(5H)-yl)methoxy)-7-(8-ethyl-7-fluoro-3-hydroxynaphthalen-1-yl)-8-fluoropyrido[4,3-d]pyrimidin-4-yl)-3-azabicyclo[3.2.1]octan-6-ol]	< 2	25	4	3	946	19	17	< 2	0.3	< 2	< 2	3	< 2
CCc1c(F)ccc2cc(O)cc(-c3ncc4c(N5C[C@@H]6C[C@H](C5)[C@H](O)C6)nc(OCC56CCCN5CC(F)(F)C6)nc4c3F)c12 (stereo partly drawn) [Example 924, (1R,5R,6R)-3-(2-((2,2-difluorotetrahydro-1H-pyrrolizin-7a(5H)-yl)methoxy)-7-(8-ethyl-7-fluoro-3-hydroxynaphthalen-1-yl)-8-fluoropyrido[4,3-d]pyrimidin-4-yl)-3-azabicyclo[3.2.1]octan-6-ol]	7				> 10000	118	262	7	14	14	4		5
CCc1c(F)ccc2cc(O)cc(-c3ncc4c(N5C[C@@H]6C[C@H](C5)[C@H](O)C6)nc(OCC56CC(F)CN5CC(F)C6)nc4c3F)c12 (stereo partly drawn) [Example 923, (1R,5R,6R)-3-(2-((2,6-difluorotetrahydro-1H-pyrrolizin-7a(5H)-yl)methoxy)-7-(8-ethyl-7-fluoro-3-hydroxynaphthalen-1-yl)-8-fluoropyrido[4,3-d]pyrimidin-4-yl)-3-azabicyclo[3.2.1]octan-6-ol]	8				> 10000	125	365	7	9	18	4		5
CCc1c(F)ccc2cc(O)cc(-c3ncc4c(N5CCC[C@]6(C5)NC(=O)NC6=O)nc(OCC56CCCN5C/C(=C\F)C6)nc4c3F)c12 (stereo partly drawn) [Example 794, (5R)-7-(7-(8-ethyl-7-fluoro-3-hydroxynaphthalen-1-yl)-8-fluoro-2-(((Z)-2-(fluoromethylene)tetrahydro-1H-pyrrolizin-7a(5H)-yl)methoxy)pyrido[4,3-d]pyrimidin-4-yl)-1,3,7-triazaspiro[4.5]decane-2,4-dione]	< 2	26	6	5	37	27	32	< 2	1	< 2	< 2	12	< 2
CCc1c(F)ccc2cc(O)cc(-c3ncc4c(N5CC=CCC5)nc(OC[C@@]56CCCN5C[C@H](F)C6)nc4c3F)c12 [Example 921, 4-(4-(3,6-dihydropyridin-1(2H)-yl)-8-fluoro-2-(((2R,7aS)-2-fluorotetrahydro-1H-pyrrolizin-7a(5H)-yl)methoxy)pyrido[4,3-d]pyrimidin-7-yl)-5-ethyl-6-fluoronaphthalen-2-ol]	4	309	75	33	7630	86	92	2	0.4	4	2	68	2
CCc1c(F)ccc2cc(O)cc(-c3ncc4c(N5C[C@@H]6C[C@H](C5)[C@H](O)C6)nc(OC[C@@]56CCCN5C[C@@H](F)C6)nc4c3F)c12 [Example 927, (1R,5R,6R)-3-(7-(8-ethyl-7-fluoro-3-hydroxynaphthalen-1-yl)-8-fluoro-2-(((2S,7aS)-2-fluorotetrahydro-1H-pyrrolizin-7a(5H)-yl)methoxy)pyrido[4,3-d]pyrimidin-4-yl)-3-azabicycle[3.2.1]octan-6-ol]	6				> 10000	202	468	7	17	13	4		5
CCc1c(F)ccc2cc(O)cc(-c3ncc4c(N5C[C@@H]6C[C@H](C5)[C@H](O)C6)nc(OCC56CCCN5C(C)CC6)nc4c3F)c12 (stereo partly drawn) [Example 928, (1R,5R,6R)-3-(7-(8-ethyl-7-fluoro-3-hydroxynaphthalen-1-yl)-8-fluoro-2-((3-methyltetrahydro-1H-pyrrolizin-7a(5H)-yl)methoxy)pyrido[4,3-d]pyrimidin-4-yl)-3-azabicyclo[3.2.1]octan-6-ol]	< 2				2840	33	74	< 2	3	2	< 2		< 2
CCc1c(F)ccc2cc(O)cc(-c3ncc4c(N5C[C@@H]6C[C@H](C5)[C@H](O)C6)nc(OC[C@@]56CCCN5C[C@@H](OC)C6)nc4c3F)c12 [Example 925, (1R,5R,6R)-3-(7-(8-ethyl-7-fluoro-3-hydroxynaphthalen-1-yl)-8-fluoro-2-(((2S,7aS)-2-methoxytetrahydro-1H-pyrrolizin-7a(5H)-yl)methoxy)pyrido[4,3-d]pyrimidin-4-yl)-3-azabicyclo[3.2.1]octan-6-ol]	3				> 10000	302	826	4	9	6	2		3
C=C1CN2CCCC2(COc2nc(N3CCCC(C)(O)C3)c3cnc(-c4cc(O)cc5ccc(F)c(CC)c45)c(F)c3n2)C1 (stereo in doubt) [Example 797, (3R)-1-(7-(8-ethyl-7-fluoro-3-hydroxynaphthalen-1-yl)-8-fluoro-2-((2-methylenetetrahydro-1H-pyrrolizin-7a(5H)-yl)methoxy)pyrido[4,3-d]pyrimidin-4-yl)-3-methylpiperidin-3-ol]	< 2	10	3	1	296	4	1	< 2		< 2	< 2	3	< 2
